Data set [1] in a line: Rectal absorption in vivo (monkeys): plasma level of the antibiotic after suppository. The note with it: for Cmax: both sexes, monkey, plasma, read-out: Cmax Bereich. The text has this: Für diesen Versuch wurden männliche und weibliche erwachsene Affen (Papio anubis und Papio hamadryas) im Gewicht vom 12-27 kg verwendet. die über Nacht vor der Verabreichung des Antibiotikums fasten gelassen wurden, dann durch i.m.-Injektionen von Ketamin-Hydrochlorid vor der Verabreichung des Antibiotikums sediert wurden. Aus den nachstehend beschriebenen Formulierungen wurden Suppositorien hergestellt die den Tieren verabreicht wurden. Die Rektalöffnungen wurden dann mit Klebeband verschlossen, um ein Herausdrücken der Suppositorienmasse zu vermeiden.
Zur Messung der Resorption des Antibiotikums in den Blutstrom wurden Blutproben aus der Femoralregion vor der Verabreichung des Antibiotikums und 15, 30, 60, 120, 240, 360 und 480 Minuten danach entnommen. Proben wurden zentrifugiert und wie oben beschrieben vermessen. Die Resultate sind in Tabelle 3 zusammengestellt: Tabelle 3

The nature of data set [2]: Oral absorption in vivo (monkeys): plasma concentration of Ceftriaxon after enteric-coated hard gelatin capsules by gavage. Further details: species or system Papio anubis und Papio hamadryas. The note with it: Kontrollwert: 300 mg Ceftriaxon-Na in the same capsule without absorption enhancer. An excerpt: Erwachsene Affen (Papio anubis und Papio hamadryas) im Gewicht von 12-30 kg wurden über Nacht fasten gelassen, dann durch i.m.-Injektion von Ketaminhydrochlorid vor der Verabreichung des Antibiotikums sediert. Jeder Affe erhielt vier Hartgelatinekapseln durch Schlundsonde mit der folgenden Zusammensetzung:
Die Kapseln waren mit einem Ueberzug von Polyvinylacetatphthalat (etwa 8% des Kapselgewichtes) versehen.
Die Plasmakonzentration von Ceftriaxon wurde vor der Verabreichung und 10, 20, 40, 60, 120, 180 und 240 Minuten danach bestimmt.

The nature of data set [3]: Enteral absorption in vivo (rats): plasma level of the antibiotic after intraduodenal injection, agar plate bioassay. The note with it: rat, 20 mg/kg, enteral (duodenum), Dosis = 5 mg/0,5 ml. As for the experimental part: Weibliche Ratten im Gewicht von etwa 250 g wurden über Nacht fasten gelassen und mit Metofan anästhesiert. Die Antibiotika wurden in Lösung mit oder ohne Resorptionsverstärker nach Bauchschnitt in das Duodenum unterhalb des Magenausgangs injiziert. Für Vergleichszwecke wurde die Lösung alternativ intravenös in die Schwanzvene appliziert. Die Antibiotika wurden in Wasser gelöst, so dass die Lösungen (mit oder ohne Verstärker) 20 mg/kg, etwa 5 mg pro Ratte, enthielten.
Die Konzentration des Antibiotikums im Plasma der Ratte wurde nach verschiedenen Zeitintervallen nach intravenöser oder enteraler Verabreichung bestimmt. Blutproben wurden aus der Schwanzvene des Versuchstiers vor der Verabreichung des Antibiotikums und 5, 10, 20, 40, 60, 120, 240 und 360 Minuten danach entnommen, danach zentrifugiert und das Plasma bis zur Analyse eingefroren.
Antibiotika, die nicht an Plasma gebunden waren, wurden mit Wasser verdünnt und gegen in Wasser hergestellte Standards geprüft. Für gebundene Antibiotika wurde der Einfluss der Proteinbindung eliminiert durch Verdünnen aller Standardlösungen und Proben im gesammelten Plasma. Im Fall von Ceftriaxon und Cefazolin wurde der Effekt der Bindung dadurch berücksichtigt, dass Plasmaproben mit Acetonitril mit einem Verdünnungsfaktor 1:12 deproteinisiert und gegen eine Standardkurve in Wasser verdünnt gemessen wurden. Antibiotikaspiegel wurden wie in Tabelle 1 angegeben auf Agarplatten ermittelt. Tabelle 1
Die Platten wurden bei 37°C über Nacht bebrütet und die Hemmzonen auf die nächsten […] abgelesen. Die Berechnungen wurden mittels einer Autoassaymaschine (Giles Scientific, Inc., New York) vorgenommen. Vergleiche J.V. Bennett et al., Applied Microbiology 14, 170-177 (1966).

Where [4] appears, read: 500 mg, rectal suppository, Mit Resorptionsverstärker, Formulierung C (500 mg antibiotic, Labrasol 250 mg, Caprylsäure 200 mg).
Setting [5] is: rectal suppository, Mit Resorptionsverstärker, Formulierung D (500 mg antibiotic, Labrasol 250 mg, Caprylsäure 100 mg, Natriumcaprylat 100 mg).
The mark [6] stands for this setting: rectal, Kontrolle ohne Resorptionsverstärker.
Where [7] appears, read: rectal suppository, Mit Resorptionsverstärker, Formulierung C (500 mg antibiotic, Labrasol 250 mg, Caprylsäure 200 mg).

The values below come from patent EP0418674A1, “Pharmaceutical preparations for enhanced absorption of antibacterial compounds” (priority 1989, dated 1991).

One may read the Cmax as the maximum level reached in the sampled fluid or tissue. `CO[C@@]1(NC(=O)C2SC(=C(C(N)=O)C(=O)O)S2)C(=O)N2C(C(=O)O)=C(CSc3nnnn3C)CS[C@@H]21` (some centres unmarked) [Cefotetan]: the results for the peak concentration (Cmax) in data set [1] (setting [4]), in data set [1] (setting [5]) and in data set [1] (setting [6]) were 4300 to 21100 ng/mL, 2500 to 61500 ng/mL and 2400 to 10100 ng/mL, respectively. The “% Bioverfügbarkeit” value in data set [1] (setting [7]) was 11.4 ± 7.4%; in data set [1] (setting [5]), 24.1 ± 12.8%; in data set [1] (setting [6]) it was 4.9 ± 3.1%. Besides, in data set [1] (rectal, Kontrolle ohne Resorptionsverstärker, listed as Cefotetran), the “Cmax Bereich” value was in the range of 3400 to 10100 ng/mL.

In the case of `CO/N=C(\C(=O)N[C@@H]1C(=O)N2C(C(=O)O)=C(CSc3nc(=O)c(=O)[nH]n3C)CS[C@H]12)c1csc(N)n1` [Ceftriaxon-Na, Ceftriaxon-Natrium], in data set [2], the Bioverfügbarkeit is 0%.

In the case of `CO/N=C(\C(=O)N[C@@H]1C(=O)N2C(C(=O)O)=C(CSc3nc(=O)c(=O)[nH]n3C)CS[C@H]12)c1csc(N)n1` [Ceftriaxon], the Cmax was 52200 ± 22500 ng/mL in data set [3] (female, plasma, other: intraduodenal injection (enteral), Labrasol + Caprylsäure + Natriumcaprylat, weight ratio 4:1:1); 57000 ± 10200 ng/mL in data set [3] (female, plasma, other: intraduodenal injection (enteral), Labrasol + Caprylsäure, weight ratio 2:1); 21600 to 46600 ng/mL in data set [1] (setting [4]); 16300 to 38300 ng/mL in data set [1] (setting [5]); 300 to 9000 ng/mL in data set [1] (setting [6]). Moreover, the entries for the “% Bioverfügbarkeit” value in data set [1] (setting [7]), in data set [1] (setting [5]) and in data set [1] (setting [6]) were 17.3 ± 4.8%, 17.1 ± 5.0% and 4.3 ± 2.8%, respectively.

Regarding `CC1(C)S[C@@H]2[C@H](NC(=O)Cc3ccccc3)C(=O)N2[C@H]1C(=O)O` [Penicillin G], the Cmax was found to be 2900 ± 1600 ng/mL in data set [3] (in vivo, Labrasol + Caprylsäure + Natriumcaprylat, weight ratio 4:1:1) and 7200 ± 700 ng/mL in data set [3] (in vivo, Labrasol + Caprylsäure, weight ratio 2:1).

In the case of `CN[C@H](CC(C)C)C(=O)N[C@H]1C(=O)N[C@@H](CC(N)=O)C(=O)N[C@H]2C(=O)N[C@H]3C(=O)N[C@H](C(=O)N[C@H](C(=O)O)c4cc(O)cc(O)c4-c4cc3ccc4O)[C@H](O)c3ccc(c(Cl)c3)Oc3cc2cc(c3O[C@@H]2O[C@H](CO)[C@@H](O)[C@H](O)[C@H]2O[C@H]2C[C@](C)(N)[C@H](O)[C@H](C)O2)Oc2ccc(cc2Cl)[C@H]1O` [Vancomycin], the Cmax was 5300 ± 2100 ng/mL in data set [3] (female, in vivo, Labrasol + Caprylsäure + Natriumcaprylat, weight ratio 4:1:1) and 8000 ± 2300 ng/mL in data set [3] (female, in vivo, Labrasol + Caprylsäure, weight ratio 2:1).
